One molecule from publication PMC5218480 (PLoS ONE, 2017) can be followed below.

SMILES strings stand for the structures.

The subject of the test is MV-4-11 cells. Description: Gene expression microarray analysis (Affymetrix PrimeView) and GSEA. It is filed as cell-based, human. More on the design: RFU PODN (11730768_x_at) / Fold change /veh PODN (11730768_x_at) / RFU LINC00158 (11744669_a_at) / Fold change /veh LINC00158 (11744669_a_at) / RFU DUSP10 (11751237_a_at) / Fold change /veh DUSP10 (11751237_a_at) / RFU ID3 (11757404_x_at) / Fold change /veh ID3 (11757404_x_at) / RFU PLEKHG5 (11737974_s_at) / Fold change /veh PLEKHG5 (11737974_s_at) / RFU LRRC4B (11730491_at) / Fold change /veh LRRC4B (11730491_at) / RFU GIMAP4 (11747438_a_at) / Fold change /veh GIMAP4 (11747438_a_at) / RFU KRT8 (11758183_x_at) / Fold change /veh KRT8 (11758183_x_at) / RFU CNN1 (11734310_a_at) / Fold change /veh CNN1 (11734310_a_at) / RFU VPS37D (11726825_at) / Fold change /veh VPS37D (11726825_at) / RFU C10orf10 (11716522_x_at) / Fold change /veh C10orf10 (11716522_x_at) / RFU KIR2DL2 /// KIR2DL4 /// KIR2DL5A /// KIR2DL5B /// KIR2DS1 /// KIR2DS2 /// KIR2DS3 /// KIR2DS4 /// KIR3DL3 /// KIR3DL3 /// KIR3DS1 (11738374_at) / Fold change /veh KIR2DL2 /// KIR2DL4 /// KIR2DL5A /// KIR2DL5B /// KIR2DS1 /// KIR2DS2 /// KIR2DS3 /// KIR2DS4 /// KIR3DL3 /// KIR3DL3 /// KIR3DS1 (11738374_at) / RFU C1QL1 (11718748_at) / Fold change /veh C1QL1 (11718748_at) / RFU TMPRSS4 (11747572_a_at) / Fold change /veh TMPRSS4 (11747572_a_at) / RFU HAMP (11756126_x_at) / Fold change /veh HAMP (11756126_x_at) / RFU RNFT2 (11725882_a_at) / Fold change /veh RNFT2 (11725882_a_at) / RFU NR4A2 (11747474_a_at) / Fold change /veh NR4A2 (11747474_a_at) / RFU ABCC12 (11746883_a_at) / Fold change /veh ABCC12 (11746883_a_at) / RFU TMEM136 (11760407_x_at) / Fold change /veh TMEM136 (11760407_x_at) / RFU CLDN22 /// WWC2 (11732394_at) / Fold change /veh CLDN22 /// WWC2 (11732394_at) / RFU HLA-DPB1 (11760878_x_at) / Fold change /veh HLA-DPB1 (11760878_x_at) / RFU SPINT1 (11716480_a_at) / Fold change /veh SPINT1 (11716480_a_at) / RFU GAP43 (11754022_s_at) / Fold change /veh GAP43 (11754022_s_at) / RFU A4GNT (11735810_at) / Fold change /veh A4GNT (11735810_at) / RFU PRB3 (11715151_x_at) / Fold change /veh PRB3 (11715151_x_at) / RFU TUBB4B (11761932_at) / Fold change /veh TUBB4B (11761932_at) / RFU CAPN14 (11732068_a_at) / Fold change /veh CAPN14 (11732068_a_at) / RFU TMCC2 (11721928_a_at) / Fold change /veh TMCC2 (11721928_a_at) / RFU IRGQ (11745062_a_at) / Fold change /veh IRGQ (11745062_a_at) / RFU FAM174B (11720279_a_at) / Fold change /veh FAM174B (11720279_a_at) / RFU TMPRSS4 (11748680_a_at) / Fold change /veh TMPRSS4 (11748680_a_at) / RFU FAM212B (11763350_a_at) / Fold change /veh FAM212B (11763350_a_at) / RFU PLEKHG5 (11743358_a_at) / Fold change /veh PLEKHG5 (11743358_a_at) / RFU ZSCAN30 (11745921_a_at) / Fold change /veh ZSCAN30 (11745921_a_at) / RFU CMKLR1 (11741424_a_at) / Fold change /veh CMKLR1 (11741424_a_at) / RFU LOC101060620 /// MAPK8IP1 (11723275_at) / Fold change /veh LOC101060620 /// MAPK8IP1 (11723275_at) / RFU SPTSSB (11747773_x_at) / Fold change /veh SPTSSB (11747773_x_at) / RFU PRSS12 (11739890_at) / Fold change /veh PRSS12 (11739890_at) / RFU BIN1 (11741810_x_at) / Fold change /veh BIN1 (11741810_x_at) / RFU WNT11 (11732464_a_at) / Fold change /veh WNT11 (11732464_a_at) / RFU C10orf10 (11716521_a_at) / Fold change /veh C10orf10 (11716521_a_at) / RFU C5orf56 (11738089_at) / Fold change /veh C5orf56 (11738089_at) / RFU CYB561 (11721691_x_at) / Fold change /veh CYB561 (11721691_x_at) / RFU ANKRD19P (11752326_a_at) / Fold change /veh ANKRD19P (11752326_a_at) / RFU OR2T12 /// OR2T33 /// OR2T8 (11738714_s_at) / Fold change /veh OR2T12 /// OR2T33 /// OR2T8 (11738714_s_at) / RFU VCAN (11748164_a_at) / Fold change /veh VCAN (11748164_a_at) / RFU JSRP1 (11732532_at) / Fold change /veh JSRP1 (11732532_at) / RFU KRTAP10-11 (11738290_x_at) / Fold change /veh KRTAP10-11 (11738290_x_at) / RFU MYO3A (11730013_a_at) / Fold change /veh MYO3A (11730013_a_at) / RFU EBF3 (11725865_a_at) / Fold change /veh EBF3 (11725865_a_at) / RFU CAMK2N1 (11719241_x_at) / Fold change /veh CAMK2N1 (11719241_x_at) / RFU C5orf56 (11738088_a_at) / Fold change /veh C5orf56 (11738088_a_at) / RFU OLFML3 (11715873_a_at) / Fold change /veh OLFML3 (11715873_a_at) / RFU LOC100653217 /// NTM (11731650_a_at) / Fold change /veh LOC100653217 /// NTM (11731650_a_at) / RFU MAPK11 (11762145_a_at) / Fold change /veh MAPK11 (11762145_a_at) / RFU FIZ1 (11724087_x_at) / Fold change /veh FIZ1 (11724087_x_at) / RFU OASL (11726364_x_at) / Fold change /veh OASL (11726364_x_at) / RFU SOX15 (11748057_x_at) / Fold change /veh SOX15 (11748057_x_at) / RFU CD79A (11719716_a_at) / Fold change /veh CD79A (11719716_a_at) / RFU HIST1H1D (11736915_at) / Fold change /veh HIST1H1D (11736915_at) / RFU CASKIN2 (11723855_a_at) / Fold change /veh CASKIN2 (11723855_a_at) / RFU LOC730098 (11760151_x_at) / Fold change /veh LOC730098 (11760151_x_at) / RFU OR4N2 (11742367_at) / Fold change /veh OR4N2 (11742367_at) / RFU PRRT2 (11749266_a_at) / Fold change /veh PRRT2 (11749266_a_at) / RFU SNX32 (11753110_a_at) / Fold change /veh SNX32 (11753110_a_at) / RFU CDHR5 (11726645_a_at) / Fold change /veh CDHR5 (11726645_a_at) / RFU RCAN1 (11760418_a_at) / Fold change /veh RCAN1 (11760418_a_at) / RFU FAM167A (11723789_a_at) / Fold change /veh FAM167A (11723789_a_at) / RFU FAM26E (11764081_at) / Fold change /veh FAM26E (11764081_at) / RFU ISYNA1 (11749810_s_at) / Fold change /veh ISYNA1 (11749810_s_at) / RFU ACY1 (11761880_at) / Fold change /veh ACY1 (11761880_at) / RFU 11764098_at / Fold change /veh 11764098_at / RFU SAMD14 (11745864_x_at) / Fold change /veh SAMD14 (11745864_x_at) / RFU NPB (11741838_a_at) / Fold change /veh NPB (11741838_a_at) / RFU TMPRSS6 (11731388_a_at) / Fold change /veh TMPRSS6 (11731388_a_at) / RFU KRTAP10-2 (11738614_at) / Fold change /veh KRTAP10-2 (11738614_at) / RFU ARHGAP8 /// PRR5-ARHGAP8 (11727945_x_at) / Fold change /veh ARHGAP8 /// PRR5-ARHGAP8 (11727945_x_at) / RFU KRTAP5-7 /// NADSYN1 (11734609_at) / Fold change /veh KRTAP5-7 /// NADSYN1 (11734609_at) / RFU RASL12 (11751679_a_at) / Fold change /veh RASL12 (11751679_a_at) / RFU CDKN2B (11736163_a_at) / Fold change /veh CDKN2B (11736163_a_at) / RFU PRF1 (11729649_at) / Fold change /veh PRF1 (11729649_at) / RFU, ZNF638 /// ZNF638-IT1 / Fold change vs veh, ZNF638 /// ZNF638-IT1 / RFU, PANK3 / Fold change vs veh, PANK3 / RFU, SH3YL1 / Fold change vs veh, SH3YL1 / RFU, ZEB2 / Fold change vs veh, ZEB2 / RFU, NRIP1 / Fold change vs veh, NRIP1 / RFU, PTTG1IP / Fold change vs veh, PTTG1IP / RFU, CAPN2 / Fold change vs veh, CAPN2 / RFU, MED14 / Fold change vs veh, MED14 / RFU, SNORA58 / Fold change vs veh, SNORA58 / RFU, C1orf63 / Fold change vs veh, C1orf63 / RFU, LRRFIP1 / Fold change vs veh, LRRFIP1 / RFU, NDUFAF7 / Fold change vs veh, NDUFAF7 / RFU, SLC12A2 / Fold change vs veh, SLC12A2 / RFU, IBTK / Fold change vs veh, IBTK / RFU, ESF1 / Fold change vs veh, ESF1 / Fold change vs veh, TMEM50B / RFU, TAOK1 / Fold change vs veh, TAOK1 / RFU, ACBD3 / Fold change vs veh, ACBD3 / RFU, TMA16 / Fold change vs veh, TMA16 / RFU, RWDD3 / Fold change vs veh, RWDD3 / RFU, BCAT1 / Fold change vs veh, BCAT1 / RFU, EDEM3 / Fold change vs veh, EDEM3 / RFU, TMEM33 / Fold change vs veh, TMEM33 / RFU, WDR75 / Fold change vs veh, WDR75 / RFU, AHCTF1 / Fold change vs veh, AHCTF1 / RFU, TFRC / Fold change vs veh, TFRC / RFU, ZDHHC17 / Fold change vs veh, ZDHHC17 / RFU, NOM1 / Fold change vs veh, NOM1 / RFU, ARL8B / Fold change vs veh, ARL8B / RFU, ZBTB11 / Fold change vs veh, ZBTB11 / RFU, TAMM41 / Fold change vs veh, TAMM41 / RFU, KIAA1704 /// LOC100996395 / Fold change vs veh, KIAA1704 /// LOC100996395 / RFU, ING1 / Fold change vs veh, ING1 / RFU, TRMT61B / Fold change vs veh, TRMT61B / RFU, FUBP3 / Fold change vs veh, FUBP3 / RFU, TP53 / Fold change vs veh, TP53 / RFU, TNKS2 / Fold change vs veh, TNKS2 / RFU, ZFP14 / Fold change vs veh, ZFP14 / RFU, ACTR2 / Fold change vs veh, ACTR2 / RFU, PPP3R1 / Fold change vs veh, PPP3R1 / RFU, PIK3R1 / Fold change vs veh, PIK3R1 / RFU, HNRNPA1 / Fold change vs veh, HNRNPA1 / RFU, RNF170 / Fold change vs veh, RNF170 / RFU, ZNF28 / Fold change vs veh, ZNF28 / RFU, RNGTT / Fold change vs veh, RNGTT / RFU, OGT / Fold change vs veh, OGT / RFU, BRD1 / Fold change vs veh, BRD1 / RFU, MARS / Fold change vs veh, MARS / RFU, ZNF655 / Fold change vs veh, ZNF655 / RFU, FAHD1 / Fold change vs veh, FAHD1 / RFU, BDP1 / Fold change vs veh, BDP1 / RFU, LRRCC1 / Fold change vs veh, LRRCC1 / RFU, ARID1A / Fold change vs veh, ARID1A / RFU, ZNF146 / Fold change vs veh, ZNF146 / RFU, ZNF330 / Fold change vs veh, ZNF330 / RFU, GPN3 / Fold change vs veh, GPN3 / RFU, C9orf123 / Fold change vs veh, C9orf123 / RFU, N4BP2L2 / Fold change vs veh, N4BP2L2 / RFU, ARFIP1 / Fold change vs veh, ARFIP1 / RFU, FAM179B / Fold change vs veh, FAM179B / RFU, BCL10 / Fold change vs veh, BCL10 / RFU, UHRF1BP1L / Fold change vs veh, UHRF1BP1L / RFU, BET1 / Fold change vs veh, BET1 / RFU, CNOT2 / Fold change vs veh, CNOT2 / RFU, ZNF268 / Fold change vs veh, ZNF268 / Fold change vs veh, ZNF507 / RFU, DGCR2 / Fold change vs veh, DGCR2 / RFU, WDSUB1 / Fold change vs veh, WDSUB1 / Fold change vs veh, HSP90B1 /// MIR3652 / RFU, ADSS / Fold change vs veh, ADSS / RFU, GK / Fold change vs veh, GK / RFU, ZNF148 / Fold change vs veh, ZNF148 / RFU, TAF9 / Fold change vs veh, TAF9 / RFU, SLC1A5 / Fold change vs veh, SLC1A5 / RFU, SLMO2 / Fold change vs veh, SLMO2 / RFU, ABCC4 / Fold change vs veh, ABCC4 / RFU, LOC101060439 /// RAP1B / Fold change vs veh, LOC101060439 /// RAP1B / RFU, RFX7 / Fold change vs veh, RFX7 / RFU, GTPBP10 / Fold change vs veh, GTPBP10 / RFU, CNEP1R1 / Fold change vs veh, CNEP1R1 / RFU, BIVM-ERCC5 /// ERCC5 / Fold change vs veh, BIVM-ERCC5 /// ERCC5 / RFU, ILF3 / Fold change vs veh, ILF3 / RFU 11762660_at / Fold change /veh 11762660_at / RFU VCAN (11757783_s_at) / Fold change /veh VCAN (11757783_s_at) / RFU DDX43 (11728927_at) / Fold change /veh DDX43 (11728927_at) / RFU KRT8 (11758188_x_at) / Fold change /veh KRT8 (11758188_x_at) / RFU NKD1 (11759106_at) / Fold change /veh NKD1 (11759106_at) / RFU SRD5A1 (11742802_a_at) / Fold change /veh SRD5A1 (11742802_a_at) / RFU TPSAB1 /// TPSB2 (11721975_s_at) / Fold change /veh TPSAB1 /// TPSB2 (11721975_s_at) / RFU GSTM3 (11746129_a_at) / Fold change /veh GSTM3 (11746129_a_at) / RFU IL23R (11737362_x_at) / Fold change /veh IL23R (11737362_x_at) / RFU TMEM51 (11727254_a_at) / Fold change /veh TMEM51 (11727254_a_at) / RFU PIWIL2 (11732686_x_at) / Fold change /veh PIWIL2 (11732686_x_at) / RFU ORM1 (11744905_x_at) / Fold change /veh ORM1 (11744905_x_at) / RFU CCDC152 (11743942_at) / Fold change /veh CCDC152 (11743942_at) / RFU ECM1 (11717891_a_at) / Fold change /veh ECM1 (11717891_a_at) / RFU IL23R (11748794_a_at) / Fold change /veh IL23R (11748794_a_at) / RFU TNFAIP8L3 (11732012_x_at) / Fold change /veh TNFAIP8L3 (11732012_x_at) / RFU MBOAT4 (11741988_at) / Fold change /veh MBOAT4 (11741988_at) / RFU 11764193_at / Fold change /veh 11764193_at / RFU TMEM53 (11763286_at) / Fold change /veh TMEM53 (11763286_at) / RFU MAGEB2 (11727129_at) / Fold change /veh MAGEB2 (11727129_at) / RFU TMEM200A (11744735_a_at) / Fold change /veh TMEM200A (11744735_a_at) / RFU CCDC152 (11751479_a_at) / Fold change /veh CCDC152 (11751479_a_at) / RFU FAM211A (11726209_a_at) / Fold change /veh FAM211A (11726209_a_at) / RFU RGS16 (11746705_a_at) / Fold change /veh RGS16 (11746705_a_at) / RFU VCAN (11755009_s_at) / Fold change /veh VCAN (11755009_s_at) / RFU RHOB (11743442_s_at) / Fold change /veh RHOB (11743442_s_at) / RFU RGS16 (11720943_a_at) / Fold change /veh RGS16 (11720943_a_at) / RFU RGS16 (11720944_at) / Fold change /veh RGS16 (11720944_at) / RFU, VPS4B / Fold change vs veh, VPS4B / RFU, CREB1 / Fold change vs veh, CREB1 / RFU, DNAJC13 / Fold change vs veh, DNAJC13 / RFU, GNAQ / Fold change vs veh, GNAQ / RFU, CDK5R1 / Fold change vs veh, CDK5R1 / RFU, ZRANB3 / Fold change vs veh, ZRANB3 / RFU, CUL4A / Fold change vs veh, CUL4A / RFU, CCNY / Fold change vs veh, CCNY / RFU, UFL1 / Fold change vs veh, UFL1 / RFU, COG3 / Fold change vs veh, COG3 / RFU, DIAPH2 / Fold change vs veh, DIAPH2 / RFU, SKA2 / Fold change vs veh, SKA2 / RFU, AFF3 / Fold change vs veh, AFF3 / RFU, LMF1 / Fold change vs veh, LMF1 / RFU, IPO11 / Fold change vs veh, IPO11 / RFU, DFFB / Fold change vs veh, DFFB / RFU, FOXP1 / Fold change vs veh, FOXP1 / RFU, CARD8 / Fold change vs veh, CARD8 / RFU, STRN3 / Fold change vs veh, STRN3 / RFU, ADK / Fold change vs veh, ADK / RFU, RASSF2 / Fold change vs veh, RASSF2 / RFU, WIPF1 / Fold change vs veh, WIPF1 / RFU, LARP1B / Fold change vs veh, LARP1B / RFU, RASA1 / Fold change vs veh, RASA1 / RFU, RB1 / Fold change vs veh, RB1 / RFU, PPFIA1 / Fold change vs veh, PPFIA1 / RFU, MAT2A / Fold change vs veh, MAT2A / RFU, CCT5 / Fold change vs veh, CCT5 / RFU, WDR92 / Fold change vs veh, WDR92 / RFU, CUX1 / Fold change vs veh, CUX1 / RFU, TTC7A / Fold change vs veh, TTC7A / RFU, TMEM135 / Fold change vs veh, TMEM135 / RFU, DEPTOR / Fold change vs veh, DEPTOR / RFU, CPM / Fold change vs veh, CPM / RFU, DNAJB6 / Fold change vs veh, DNAJB6 / RFU, CACNA2D3 / Fold change vs veh, CACNA2D3 / RFU, DTX4 / Fold change vs veh, DTX4 / RFU, TFCP2 / Fold change vs veh, TFCP2 / RFU, GMCL1 /// GMCL1P1 / Fold change vs veh, GMCL1 /// GMCL1P1 / RFU, AEBP2 / Fold change vs veh, AEBP2 / RFU, SNHG1 /// SNORD22 /// SNORD25 /// SNORD26 /// SNORD27 /// SNORD28 /// SNORD29 /// SNORD31 / Fold change vs veh, SNHG1 /// SNORD22 /// SNORD25 /// SNORD26 /// SNORD27 /// SNORD28 /// SNORD29 /// SNORD31 / Fold change (Aza/veh), C12orf56 (ProbeSet 11735607_a_at) / Fold change (ACY-1035/veh), C12orf56 (ProbeSet 11735607_a_at) / Fold change (Aza/veh), FGFR1OP (ProbeSet 11751329_s_at) / Fold change (ACY-1035/veh), FGFR1OP (ProbeSet 11751329_s_at) / Fold change (Aza/veh), VPS36 (ProbeSet 11739960_a_at) / Fold change (ACY-1035/veh), VPS36 (ProbeSet 11739960_a_at) / RFU SYPL1 (11715823_x_at) / Fold change /veh SYPL1 (11715823_x_at) / RFU IGFBP7 (11715501_s_at) / Fold change /veh IGFBP7 (11715501_s_at) / RFU REEP3 (11722064_at) / Fold change /veh REEP3 (11722064_at) / RFU IGLL1 (11728026_x_at) / Fold change /veh IGLL1 (11728026_x_at): dose or concentration left out as unconfirmed. To be noted: ProbeSet 11727641_at; LIST B.

Turning to `Nc1ccc(-c2cccs2)cc1NC(=O)c1ccc2c(c1)cc(C1CC1)n2CCN1CCOCC1` [ACY-1035], the “RFU, NOM1” value came out at 160.01 RFU.
